For this assay, the system named is Hepatocyte spheroids. In words: Cell viability is assessed by cellular ATP assay using CellTiter-Glo Luminescent kit. Viability is expressed as average RLU from biological replicates and normalized to negative control.Toxicity is defined as those with normalized ATP significantly less than 80 percent of the negative control. Type of assay: functional, Homo sapiens. More on the design: unit not given here. (In general: In ATP-based viability assays light output follows the ATP content of the culture.)

Consider `Cn1cnc2c1c(=O)n(CCCn1c(=O)c3c(ncn3C)n(C)c1=O)c(=O)n2C` [BISDIONIN C], for which the Proliferation was 0.03665. As to `Cc1cc2nc(N3CCC(C(=O)NC4CCCC4)CC3)n(C(C)C)c2cc1C`, the Proliferation (Concentration range 10nM-10uM) is 0.1009. The compound `COc1cc2c(cc1OCCCN1CCCC1)N=C(N)C21CCC1` came in with a Proliferation of 0.2543. Take `CCn1cc(-c2cccc(C(F)(F)F)c2)c2sc(C(=N)NC3CCS(=O)(=O)CC3)cc2c1=O`: the Proliferation (Concentration range 10nM-10uM) is 0.05754. Still for that read-out and setting: in the case of `Cc1cc(=O)n(C)c2cc(N3C(=O)CC[C@H](NS(=O)(=O)CC(C)C)[C@H]3c3ccc(Cl)cc3)ccc12` it was 0.2341. With `CSc1ccc(-c2cc3ncnc(SCC(=O)O)c3s2)cc1`, the Proliferation turned out to be 0.882. On the same count and under the same terms, in the case of `Cc1cc2c(cc1N1C(=O)c3cccc4c(CCCO)ccc(c34)C1=O)n(C)c(=O)n2C` it was 0.07854. Still for that read-out and setting: the result for `Nc1ncnc2c1ccn2[C@@H]1O[C@H]([C@H](O)c2ccccc2)[C@@H](O)[C@H]1O` reads 0.1599; that for `COc1c(C)cc(NC(=O)c2nn(Cc3ccc(F)cc3)c3c2CN(C(=O)c2ccc[nH]2)C[C@]3(C)C(N)=O)cc1C`, 0.06587.

In turn, `CCNC(=O)c1cc2c(N3CCOCC3C)ccnc2[nH]1` (stereo not given) returned a Proliferation of 0.05192.

`COc1cc(-c2cn(C)c(=O)c3cnccc23)c(OC)cc1CN(C)C` returned a Proliferation of 0.1518. Still for that read-out and setting: the result for `O=S(=O)(NC1CCC(c2cc(F)ccc2F)(S(=O)(=O)c2ccc(Cl)cc2)CC1)C(F)(F)F` (stereo not given) [MRK-560] reads 0.1212. Still for that read-out and setting: in the case of `CCCCNc1ncc(-c2ccc(CN3CCOCC3)cn2)c(N[C@H]2CC[C@H](O)CC2)n1` it was 0.01481.

`CCC(=O)N1CCOc2c(cc(-c3ccc(OC)c(OC)c3)cc2OCC2CCCN(C)C2)C1` (stereo not given) yielded a Proliferation (Concentration range 5nM-5uM) of 0.8195. In the case of `Cn1c(=O)c(Oc2ccc(F)cc2F)cc2cnc(NC(CCO)CCO)nc21` [PAMAPIMOD], the Proliferation is recorded as 0.003154. In turn, `COc1ccccc1S(=O)(=O)Nc1ccc2c(c1)CN(C)C(=O)N2` gave a Proliferation (Concentration range 10nM-10uM) of 0.003099. Same read-out and setting: the result for `CN1CCN(c2ccc(-c3cccc(CN4CCOCC4)c3)cc2NC(=O)c2c[nH]c(=O)cc2C(F)(F)F)CC1` reads 0.001358. Turning to `CN(C)C/C=C/C(=O)Nc1cc2c(Nc3ccc(F)c(Cl)c3)ncnc2cc1O[C@H]1CCOC1.O=C(O)/C=C\C(=O)O.O=C(O)/C=C\C(=O)O` [AFATINIB DIMALEATE], the Proliferation worked out at 0.1122. Turning to `CCCOc1ccn2c(C(C)=O)cc(-c3ccccc3S(C)(=O)=O)c2c1`, where the note is “Concentration range 10nM-10uM”, the Proliferation is on record as 0.6349.

In turn, `Cc1cn(-c2cc(NC(=O)c3ccc4c(c3)CN(c3cncnc3)C[C@@H]4C)cc(C(F)(F)F)c2)cn1` had a Proliferation of 0.4149. For the setting “Concentration range 1nM-1uM”, `Cl.Cl.c1ccc([C@@H]2C[C@H]2NC2CCNCC2)cc1` yielded a Proliferation of 0.6494. Turning to `Cn1cnc2c(F)c(Nc3ccc(Br)cc3Cl)c(C(=O)NOCCO)cc21` [SELUMETINIB], the Proliferation was 0.04298.

As for `O=C(N[C@@H]1CCOC1)C1CCN(c2nc3cc(Cl)c(Cl)cc3n2-c2ccc3ccccc3n2)CC1`, the Proliferation is reported as 0.003884. Take `COc1cc2c(cc1NS(=O)(=O)c1ccc(Br)cc1C)n(C)c(=O)n2C`: the Proliferation (Concentration range 5nM-5uM) came out at 0.003884.

The compound `Nc1nc2[nH]cnc2c(=S)[nH]1` [THIOGUANINE] showed a Proliferation of 0.05104. The same measure, in the same setting: in the case of `CCOc1cc(N2CCC(O)CC2)ccc1Nc1ncc2c(n1)N(C)c1ccccc1C(=O)N2C` it was 0.02286. The compound `CCCc1cc(C)[nH]c(=O)c1CNC(=O)c1cc(-c2ccnc(N3CCN(C)CC3)c2)cc2c1cnn2C(C)C` yielded a Proliferation (Concentration range 5nM-5uM) of 0.009822.

The compound `CNC(=O)Nc1ccc2c(c1)CC[C@@]21OC(=O)N(CC(=O)N(Cc2ccc(F)cc2)[C@@H](C)C(F)(F)F)C1=O` [A-485] displayed a Proliferation of 0.02668. On the same count and under the same terms, in the case of `CC(=O)N1CCC(c2ccc(C(=O)NC(=N)N)cc2C(F)(F)F)CC1` [BI 9627] it was 0.09817. The same measure, in the same setting: in the case of `O=C(NOC[C@H](O)CO)c1ccc(F)c(F)c1Nc1ccc(I)cc1F` [MIRDAMETINIB] it was 0.
